# Laboratory results as given in ChEMBL document CHEMBL1156997, “4,7-Dichloro benzothien-2-yl sulfonylaminomethyl boronic acid: first boronic acid-derived beta-lactamase inhibitor with class A, C, and D activity” (Bioorg Med Chem Lett, 2010).
# Columns and labels:
# [1] = biological target: Beta-lactamase (Pseudomonas aeruginosa (strain ATCC 15692 / PAO1 / 1C / PRS 101 / LMG12228)) (UniProt P24735); test: Inhibition of Pseudomonas aeruginosa beta-lactamase AmpC at 2 uM
# Beta-lactamase [2] = biological target: Beta-lactamase (Acinetobacter baumannii, UniProt Q8RLA6); test: Inhibition of Acinetobacter baumannii beta-lactamase OXA40
# [3] = Inhibition of Pseudomonas aeruginosa beta-lactamase TEM-1
# Beta-lactamase SHV-5 = Beta-lactamase SHV-5 (Klebsiella pneumoniae, UniProt P0A3M1); test: Inhibition of Klebsiella pneumoniae beta-lactamase SHV5
# Beta-lactamase [4] = biological target: Beta-lactamase (Pseudomonas aeruginosa (strain ATCC 15692 / PAO1 / 1C / PRS 101 / LMG12228), UniProt P24735); test: Inhibition of Pseudomonas aeruginosa beta-lactamase AmpC
# Beta-lactamase [5] = biological target: Beta-lactamase (Enterobacter cloacae, UniProt P05364); test: Inhibition of Enterobacter colacae P99 Beta-lactamase
# [6] = biological target: Beta-lactamase (Pseudomonas aeruginosa (strain ATCC 15692 / PAO1 / 1C / PRS 101 / LMG12228)) (UniProt P24735); test: Inhibition of Pseudomonas aeruginosa beta-lactamase AmpC at 0.8 uM
# Beta-lactamase (Pseudomonas aeruginosa (strain ATCC 15692 / PAO1 / 1C / PRS 101 / LMG12228)), sequence (P24735 27-397 limits assumed): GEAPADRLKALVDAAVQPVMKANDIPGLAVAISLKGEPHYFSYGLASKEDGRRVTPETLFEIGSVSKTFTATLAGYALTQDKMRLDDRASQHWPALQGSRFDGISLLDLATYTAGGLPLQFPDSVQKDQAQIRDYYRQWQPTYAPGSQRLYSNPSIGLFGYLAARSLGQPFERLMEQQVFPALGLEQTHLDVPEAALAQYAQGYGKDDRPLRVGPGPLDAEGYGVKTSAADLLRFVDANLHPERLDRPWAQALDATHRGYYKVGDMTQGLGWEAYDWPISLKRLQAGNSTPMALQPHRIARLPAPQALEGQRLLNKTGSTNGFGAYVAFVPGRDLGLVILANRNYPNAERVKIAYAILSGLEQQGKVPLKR
# Beta-lactamase (Acinetobacter baumannii, UniProt Q8RLA6), sequence (Q8RLA6 whole entry): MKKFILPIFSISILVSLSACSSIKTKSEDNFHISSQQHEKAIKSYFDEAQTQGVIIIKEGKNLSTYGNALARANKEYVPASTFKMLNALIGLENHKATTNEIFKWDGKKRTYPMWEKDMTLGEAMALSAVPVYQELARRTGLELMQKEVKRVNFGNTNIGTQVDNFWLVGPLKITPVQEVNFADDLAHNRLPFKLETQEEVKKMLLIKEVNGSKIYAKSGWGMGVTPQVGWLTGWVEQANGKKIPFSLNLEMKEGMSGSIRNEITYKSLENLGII
# Beta-lactamase (Enterobacter cloacae, UniProt P05364), sequence (P05364 whole entry): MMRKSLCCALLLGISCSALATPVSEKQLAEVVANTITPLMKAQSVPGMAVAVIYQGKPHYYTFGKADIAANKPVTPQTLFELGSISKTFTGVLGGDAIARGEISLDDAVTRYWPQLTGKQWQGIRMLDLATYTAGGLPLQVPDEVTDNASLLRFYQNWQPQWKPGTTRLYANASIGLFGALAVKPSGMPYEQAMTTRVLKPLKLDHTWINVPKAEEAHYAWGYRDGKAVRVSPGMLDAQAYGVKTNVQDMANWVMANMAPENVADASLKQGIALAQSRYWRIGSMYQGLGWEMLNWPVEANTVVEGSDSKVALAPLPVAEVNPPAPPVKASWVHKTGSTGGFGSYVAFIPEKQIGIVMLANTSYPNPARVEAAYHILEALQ
# Beta-lactamase SHV-5, sequence (P0A3M1 whole entry): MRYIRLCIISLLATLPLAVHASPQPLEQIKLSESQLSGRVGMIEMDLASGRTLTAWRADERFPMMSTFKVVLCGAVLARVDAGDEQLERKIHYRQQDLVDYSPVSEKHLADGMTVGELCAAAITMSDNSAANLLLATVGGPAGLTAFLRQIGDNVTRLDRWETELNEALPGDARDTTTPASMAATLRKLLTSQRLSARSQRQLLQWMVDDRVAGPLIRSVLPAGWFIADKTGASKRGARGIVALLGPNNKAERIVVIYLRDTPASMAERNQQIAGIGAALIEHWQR
# Beta-lactamase (Pseudomonas aeruginosa (strain ATCC 15692 / PAO1 / 1C / PRS 101 / LMG12228), UniProt P24735), sequence (P24735 whole entry): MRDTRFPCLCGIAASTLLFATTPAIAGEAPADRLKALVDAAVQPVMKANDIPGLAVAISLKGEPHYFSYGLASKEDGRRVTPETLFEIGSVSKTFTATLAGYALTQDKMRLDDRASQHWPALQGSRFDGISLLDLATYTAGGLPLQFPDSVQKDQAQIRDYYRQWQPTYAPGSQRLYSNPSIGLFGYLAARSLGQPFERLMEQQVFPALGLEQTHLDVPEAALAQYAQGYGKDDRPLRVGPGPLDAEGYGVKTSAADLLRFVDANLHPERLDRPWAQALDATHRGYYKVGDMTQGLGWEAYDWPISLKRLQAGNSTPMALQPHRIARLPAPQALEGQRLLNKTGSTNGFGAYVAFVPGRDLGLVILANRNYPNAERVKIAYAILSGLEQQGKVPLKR
inhibition [1] [%],SMILES,further results
18,O=C(O)C1CCCN1S(=O)(=O)c1ccccc1 (configuration not stated),
18,O=C(CC(=O)C(F)(F)F)c1ccccc1,
-10,CN(CC(=O)O)S(=O)(=O)c1ccc(N)cc1,
9,O=C(O)C1CCN1S(=O)(=O)c1cc(Cl)cc(Cl)c1 (configuration not stated),
18,O=C(O)CNS(=O)(=O)c1ccc(CCCCC2CCNCC2)cc1,
11,CC(C(=O)c1cccs1)C(=O)C(F)(F)F (configuration not stated),
,O=S(=O)(NCB(O)O)c1cc2c(Cl)ccc(Cl)c2s1,IC50 (Beta-lactamase [2]): 5.6 µM; IC50 [3]: 1.1 µM; IC50 (Beta-lactamase SHV-5): 0.57 µM; IC50 (Beta-lactamase [4]): 1.2 µM; IC50 (Beta-lactamase [5]): 0.62 µM
14,O=C(CC(=O)C(F)(F)F)c1ccco1,
5,O=C(O)C1CCN1S(=O)(=O)c1cccnc1 (configuration not stated),
,O=S(=O)(NCB(O)O)c1ccccc1,inhibition [6]: 29%
11,CC(C(=O)c1ccccc1)C(=O)C(F)(F)F (configuration not stated),
4,N#Cc1cc(Br)cc(S(=O)(=O)NCC(=O)O)c1,
19,O=C(CC(=O)C(F)(F)F)c1cccnc1,
